As a reminder, the GI50 is the concentration giving 50% growth inhibition.

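Tested at 5 concentrations; 48 h exposure; 96-well plates; endpoints linearly interpolated, else capped at highest concentration. Here, GI50 denotes the concentration required for 50% inhibition of growth.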 The source made the active and inactive calls. Cut-off read from the data, not from the text of the source: active = GI50 up to about 1.1 µM and inactive = higher. Where only a bound is given, the exact number is not on record here.

Here are results for 13 compounds from ChEMBL document CHEMBL1201862, “PubChem BioAssay data set” (2004).

Assay in all cases: DTP human tumour cell line panel, 48 h
Test [1] relates to OVCAR-4.
Test [2] concerns TK-10.
The test system of test [3] is K562.
Test [4] deals with UACC-257.
Test [5] has as its system HOP-62.
The test system of test [6] is SW-620.
Test [7] relates to SK-MEL-2.
Test [8] deals with OVCAR-3.
For test [9], the system named is HCT-15.
The test system of test [10] is HOP-92.
The test system of test [11] is SR.
The test system of test [12] is OVCAR-5.
Test [13] relates to CAKI-1.
Test [14] relates to NCI-H522.
In test [15] the test system is SF-295.
Test [16] has as its system COLO 205.
For test [17], the system named is DU-145.
In test [18] the test system is MDA-MB-435.
The test system of test [19] is PC-3.

For the compound `COC1(OC)CC2C(=O)N(Cc3ccccc3)C1C(S(=O)(=O)c1ccccc1)C2C(C)S(=O)(=O)c1ccccc1` (stereo not given), the GI50 in test [1], in test [2], in test [3], in test [4], in test [5] and in test [6] was > 100 µM (inactive) in each case. For the same compound, the GI50 is > 100 µM (inactive) in test [7]; > 100 µM (inactive) in test [8]; > 100 µM in test [9]; 17 µM (inactive) in [10]; > 100 µM (inactive) in test [11]; > 100 µM (inactive) in test [12]. Moreover, the GI50 in test [13], in test [14], in test [15] and in [16] was > 100 µM (inactive) in each case.

Turning to `COc1ccc(-c2nc(Sc3c([N+](=O)[O-])ncn3C)n[nH]2)cc1`, the GI50 in test [1] is 8.24 µM (inactive); in test [2], 6.17 µM (inactive); in test [3], 2.99 µM (inactive); in test [4], 3.48 µM (inactive); in test [5] it was 19.1 µM (inactive); in [6], 3.26 µM (inactive). Besides, the GI50 was 2.25 µM (inactive) in test [7]; 1.94 µM (inactive) in [8]; 2.55 µM (inactive) in test [10]; 3.23 µM (inactive) in [11]; 21 µM (inactive) in test [12]; 4.35 µM (inactive) in test [13]. Also, the figures for the GI50 in test [14], in test [15] and in test [16] were 2.27 µM (inactive), 3.33 µM (inactive) and 1.82 µM (inactive), respectively.

As to `Cc1ccccc1NC(=O)C1C(=O)N(c2ccccc2C)C(=O)/C1=N\NC(N)=S` (stereo not given), the GI50 in test [2], in [3], in test [4], in test [6], in test [7] and in test [8] was > 100 µM (inactive) each time. For the same compound, the GI50 in test [10], in test [11], in test [13], in test [14] and in [15] was > 100 µM (inactive) each time.

In the case of `C/C(=N/Nc1ccc([N+](=O)[O-])cc1[N+](=O)[O-])C(CC(C(=O)NCc1ccccc1)/C(C)=N\Nc1ccc([N+](=O)[O-])cc1[N+](=O)[O-])C(=O)NCc1ccccc1` (stereo not given), the GI50 in test [1] was 2.4 µM (inactive); in test [4], 5.21 µM (inactive); in [5] it was 3.88 µM (inactive); in test [6], 10.8 µM (inactive); in test [7], 10.1 µM (inactive); in test [8], 11.3 µM (inactive). For the same compound, the GI50 in test [9] was 10.3 µM; in [10], 2.88 µM (inactive); in test [11], 9.1 µM (inactive); in [12], 19.4 µM (inactive); in test [13], 7.03 µM (inactive); in test [14], < 0.01 µM (active). Further, the GI50 was 5.89 µM (inactive) in test [15] and 13.5 µM (inactive) in test [16].

For `N#Cc1ccc(C2NN=CC23C(=O)c2ccccc2OC3c2ccccc2)cc1` (stereo not given), the GI50 is 33.8 µM (inactive) in [1]; 25.4 µM (inactive) in [2]; 33.5 µM (inactive) in [3]; 47.1 µM (inactive) in test [17]; 28 µM (inactive) in test [4]; 54.6 µM (inactive) in test [5]. Besides, the GI50 in [6] was 45.2 µM (inactive); in test [7], 29.5 µM (inactive); in test [8] it was 30.4 µM (inactive); in test [9] it was 25.4 µM; in [11], 24 µM (inactive); in [12], 45.7 µM (inactive). Further, the GI50 in [18] was 30.8 µM (inactive); in test [13], 34 µM (inactive); in test [14], 24.2 µM (inactive); in test [15], 34.4 µM (inactive); in [19] it was 29.7 µM (inactive); in test [16] it was 18.8 µM (inactive).

Take `CN(C)[C@@H]1C(O)=C(C(=O)NCN2CCN(C(=N)NC(=N)N)CC2)C(=O)[C@@]2(O)C(O)=C3C(=O)c4c(O)cccc4[C@@](C)(O)[C@H]3C[C@@H]12`: the 50% growth inhibitory concentration (GI50) is 0.468 µM (active) in test [2]; 0.0401 µM (active) in test [3]; 0.324 µM (active) in test [4]; 1.14 µM (inactive) in [5]; 0.16 µM (active) in test [6]; 0.113 µM (active) in test [7]. Also, the GI50 in [8] was 0.287 µM (active); in [9], 0.0721 µM; in test [10], 0.279 µM (active); in test [11], 0.0406 µM (active); in test [12] it was 0.282 µM (active); in [13] it was 0.274 µM (active). For the same compound, the results for the GI50 in test [14], in [15] and in test [16] were 0.0329 µM (active), 0.506 µM (active) and 0.0798 µM (active), respectively.

As to `N#CC1=C(c2ccccc2)NNC(c2ccc(Cl)cc2)CC1=O` (stereo not given), the GI50 was 42.9 µM (inactive) in [1]; > 100 µM (inactive) in test [2]; 45 µM (inactive) in test [4]; 23.3 µM (inactive) in test [5]; 33.5 µM (inactive) in test [6]; 29.4 µM (inactive) in [7]. The GI50 in [9] is 26.2 µM; in test [10] it was 43.3 µM (inactive); in test [11], 39.2 µM (inactive); in [12] it was 37.1 µM (inactive); in test [13], 40.6 µM (inactive); in [14] it was 20.4 µM (inactive). Besides, the GI50 in test [15] was 24.6 µM (inactive).

For the compound `CN(C)C(=N)NC(=S)N(C)C`, the GI50 in [1], in test [2], in test [3], in test [4], in [5] and in [6] was > 100 µM (inactive) throughout. Moreover, the GI50 in test [7] is > 100 µM (inactive); in [9] it was > 100 µM; in test [10], > 100 µM (inactive); in [11], > 100 µM (inactive); in [12], > 100 µM (inactive); in test [13], > 100 µM (inactive). Also, the GI50 in test [14] and in test [15] was > 100 µM (inactive) in each case.

`C/C(=N\O)C(CN(C)C)C(c1ccccc1)c1c(O)c2ccccc2oc1=O` (stereo not given): the GI50 in [1], in test [2], in test [3], in test [4], in test [5] and in test [6] was > 100 µM (inactive) each time. Besides, the GI50 in [7] is > 100 µM (inactive); in test [9] it was > 100 µM; in [10] it was 34.9 µM (inactive); in test [11] it was > 100 µM (inactive); in test [12], > 100 µM (inactive); in test [13] it was > 100 µM (inactive). Moreover, the GI50 in [14], in test [15] and in test [16] was > 100 µM (inactive) throughout.

As for `Cc1cc(C)nc(NS(=O)(=O)c2ccc(NC(=O)COC(=O)c3cccc4c(=O)c5ccccc5[nH]c34)cc2)n1`, the GI50 in test [1] was 49.1 µM (inactive); in [2], 76.4 µM (inactive); in test [3] it was 32 µM (inactive); in test [4] it was 27.1 µM (inactive); in test [5] it was 23.7 µM (inactive); in [6], 31.8 µM (inactive). For the same compound, the GI50 was 23.6 µM (inactive) in test [8]; > 100 µM in test [9]; 31.1 µM (inactive) in test [10]; 28.6 µM (inactive) in [11]; 20.7 µM (inactive) in test [12]; > 100 µM (inactive) in test [13]. In addition, the GI50 in test [14] was 27.2 µM (inactive); in test [15], 33.7 µM (inactive); in test [16], 48.8 µM (inactive).

As to `N#COc1ccc(Oc2ccc(OC#N)cc2)cc1`, the GI50 in test [1] is > 100 µM (inactive); in test [2], > 100 µM (inactive); in test [3], 36.7 µM (inactive); in test [4], > 100 µM (inactive); in test [5], > 100 µM (inactive); in test [7], > 100 µM (inactive). In addition, the GI50 was > 100 µM (inactive) in test [8]; 42.8 µM in test [9]; > 100 µM (inactive) in [10]; 24.1 µM (inactive) in [11]; > 100 µM (inactive) in test [12]; > 100 µM (inactive) in test [13]. Further, the values for the GI50 in test [14], in [15] and in [16] were 43.4 µM (inactive), 98.4 µM (inactive) and 22.4 µM (inactive), respectively.

As for `O=S1(=O)C[C@@H](O)[C@H](O)CS1`, the GI50 in test [1], in test [2], in test [3], in test [4], in test [5] and in test [6] was > 100 µM (inactive) each time. Besides, the GI50 in test [8], in test [10], in [11], in test [12], in test [13] and in [14] was > 100 µM (inactive) throughout. The GI50 in test [15] and in test [16] was > 100 µM (inactive) in each case.

Consider `COc1cccc(OC)c1C(=O)OCc1ccccc1`, for which the GI50 in test [1], in test [2], in test [3], in test [4], in test [5] and in test [6] was > 100 µM (inactive) in each case. The GI50 in test [7] is > 100 µM (inactive); in [8], > 100 µM (inactive); in test [9], > 100 µM; in [10], > 100 µM (inactive); in test [11], > 100 µM (inactive); in test [13], > 100 µM (inactive). In addition, the GI50 in test [14], in test [15] and in test [16] was > 100 µM (inactive) each time.
